Each substance was assayed on DMPK (assay: DMPK knockdown by transfected antisense oligonucleotides in DM1 C15 myotubes at 0.5 nM and 50 nM). Settings: 0.5 nM oligonucleotide, 72 hours.
Format: cell-based
How it was run: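 Seven-day-differentiated DM1 C15 myotubes transfected (Lipofectamine MessengerMax) with each oligonucleotide at 0.5 nM or 50 nM final, biological triplicates. After 72 h, DMPK mRNA quantified by qPCR, expressed relative to vehicle-only transfection set to 1.00.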

Substance	Percent DMPK Reduction [%]
463 (AGGUAGUUCUCAUCCUGGAA; chemistry not given here) [compound 463]	7.36
464 (UCCUUGUAGUGGACGAUCUU; chemistry not given here) [compound 464]	12.96
465 (GCAUCCAAAACGUGGAUUGG; chemistry not given here) [compound 465]	2.54
466 (GUCCAGCAGGAUGUGUCGG; chemistry not given here) [compound 466]	30.00
467 (AGCUCCCGCAGCGUCACCUC; chemistry not given here) [compound 467]	13.72
468 (CGAGAGCAGCGCAAGUGAGG; chemistry not given here) [compound 468]	-2.19
469 (CAGGGAAAGCGCCUCCGAUA; chemistry not given here) [compound 469]	11.10
470 (AUUUCAUAGGCGAAUACACC; chemistry not given here) [compound 470]	-4.54
471 (UCGGCCAGGCGGAUGUGGCC; chemistry not given here) [compound 471]	26.53
472 (AAGGGAUGUGUCCGGAAGUC; chemistry not given here) [compound 472]	10.37
473 (CUUGUAGUGGACGAUCUUGC; chemistry not given here) [compound 473]	24.09
474 (AGUCGGCCAGGCGGAUGUGG; chemistry not given here) [compound 474]	6.15
475 (GCCUCAGCCUGGCCGAAAGA; chemistry not given here) [compound 475]	-4.82
476 (AGCGUCACCUCGGCCUCAGC; chemistry not given here) [compound 476]	22.10
477 (CAGCGGCAGAGAGAGGUGCT; chemistry not given here) [compound 477]	4.49
478 (CCAGCGGCAGAGAGAGGUGC; chemistry not given here) [compound 478]	3.23
479 (UUGUAGUGGACGAUCUUGCC; chemistry not given here) [compound 479]	17.22
480 (AGGGAAAGCGCCUCCGAUAG; chemistry not given here) [compound 480]	-1.12
481 (GGGAAAGCGCCUCCGAUAGG; chemistry not given here) [compound 481]	10.02

Same assay, conditions: 0.5 nM oligonucleotide, 72 hours, relative to vehicle control = 1.00

Substance	Normalized DMPK Remaining
463 (AGGUAGUUCUCAUCCUGGAA; chemistry not given here) [compound 463]	0.93
464 (UCCUUGUAGUGGACGAUCUU; chemistry not given here) [compound 464]	0.87
465 (GCAUCCAAAACGUGGAUUGG; chemistry not given here) [compound 465]	0.97
466 (GUCCAGCAGGAUGUGUCGG; chemistry not given here) [compound 466]	0.70
467 (AGCUCCCGCAGCGUCACCUC; chemistry not given here) [compound 467]	0.86
468 (CGAGAGCAGCGCAAGUGAGG; chemistry not given here) [compound 468]	1.02
469 (CAGGGAAAGCGCCUCCGAUA; chemistry not given here) [compound 469]	0.89
470 (AUUUCAUAGGCGAAUACACC; chemistry not given here) [compound 470]	1.05
471 (UCGGCCAGGCGGAUGUGGCC; chemistry not given here) [compound 471]	0.73
472 (AAGGGAUGUGUCCGGAAGUC; chemistry not given here) [compound 472]	0.90
473 (CUUGUAGUGGACGAUCUUGC; chemistry not given here) [compound 473]	0.76
474 (AGUCGGCCAGGCGGAUGUGG; chemistry not given here) [compound 474]	0.94
475 (GCCUCAGCCUGGCCGAAAGA; chemistry not given here) [compound 475]	1.05
476 (AGCGUCACCUCGGCCUCAGC; chemistry not given here) [compound 476]	0.78
477 (CAGCGGCAGAGAGAGGUGCT; chemistry not given here) [compound 477]	0.96
478 (CCAGCGGCAGAGAGAGGUGC; chemistry not given here) [compound 478]	0.97
479 (UUGUAGUGGACGAUCUUGCC; chemistry not given here) [compound 479]	0.83
480 (AGGGAAAGCGCCUCCGAUAG; chemistry not given here) [compound 480]	1.01
481 (GGGAAAGCGCCUCCGAUAGG; chemistry not given here) [compound 481]	0.90

Same assay, conditions: 50 nM oligonucleotide, 72 hours

Substance	Percent DMPK Reduction [%]
463 (AGGUAGUUCUCAUCCUGGAA; chemistry not given here) [compound 463]	62.62
464 (UCCUUGUAGUGGACGAUCUU; chemistry not given here) [compound 464]	84.87
465 (GCAUCCAAAACGUGGAUUGG; chemistry not given here) [compound 465]	72.69
466 (GUCCAGCAGGAUGUGUCGG; chemistry not given here) [compound 466]	82.64
467 (AGCUCCCGCAGCGUCACCUC; chemistry not given here) [compound 467]	80.40
468 (CGAGAGCAGCGCAAGUGAGG; chemistry not given here) [compound 468]	37.11
469 (CAGGGAAAGCGCCUCCGAUA; chemistry not given here) [compound 469]	91.59
470 (AUUUCAUAGGCGAAUACACC; chemistry not given here) [compound 470]	44.15
471 (UCGGCCAGGCGGAUGUGGCC; chemistry not given here) [compound 471]	83.04
472 (AAGGGAUGUGUCCGGAAGUC; chemistry not given here) [compound 472]	73.52
473 (CUUGUAGUGGACGAUCUUGC; chemistry not given here) [compound 473]	89.16
474 (AGUCGGCCAGGCGGAUGUGG; chemistry not given here) [compound 474]	67.44
475 (GCCUCAGCCUGGCCGAAAGA; chemistry not given here) [compound 475]	63.11
476 (AGCGUCACCUCGGCCUCAGC; chemistry not given here) [compound 476]	64.70
477 (CAGCGGCAGAGAGAGGUGCT; chemistry not given here) [compound 477]	86.00
478 (CCAGCGGCAGAGAGAGGUGC; chemistry not given here) [compound 478]	84.55
479 (UUGUAGUGGACGAUCUUGCC; chemistry not given here) [compound 479]	81.05
480 (AGGGAAAGCGCCUCCGAUAG; chemistry not given here) [compound 480]	75.50
481 (GGGAAAGCGCCUCCGAUAGG; chemistry not given here) [compound 481]	76.79

Same assay, conditions: 50 nM oligonucleotide, 72 hours, relative to vehicle control = 1.00

Substance	Normalized DMPK Remaining
463 (AGGUAGUUCUCAUCCUGGAA; chemistry not given here) [compound 463]	0.37
464 (UCCUUGUAGUGGACGAUCUU; chemistry not given here) [compound 464]	0.15
465 (GCAUCCAAAACGUGGAUUGG; chemistry not given here) [compound 465]	0.27
466 (GUCCAGCAGGAUGUGUCGG; chemistry not given here) [compound 466]	0.17
467 (AGCUCCCGCAGCGUCACCUC; chemistry not given here) [compound 467]	0.20
468 (CGAGAGCAGCGCAAGUGAGG; chemistry not given here) [compound 468]	0.63
469 (CAGGGAAAGCGCCUCCGAUA; chemistry not given here) [compound 469]	0.08
470 (AUUUCAUAGGCGAAUACACC; chemistry not given here) [compound 470]	0.56
471 (UCGGCCAGGCGGAUGUGGCC; chemistry not given here) [compound 471]	0.17
472 (AAGGGAUGUGUCCGGAAGUC; chemistry not given here) [compound 472]	0.26
473 (CUUGUAGUGGACGAUCUUGC; chemistry not given here) [compound 473]	0.11
474 (AGUCGGCCAGGCGGAUGUGG; chemistry not given here) [compound 474]	0.33
475 (GCCUCAGCCUGGCCGAAAGA; chemistry not given here) [compound 475]	0.37
476 (AGCGUCACCUCGGCCUCAGC; chemistry not given here) [compound 476]	0.35
477 (CAGCGGCAGAGAGAGGUGCT; chemistry not given here) [compound 477]	0.14
478 (CCAGCGGCAGAGAGAGGUGC; chemistry not given here) [compound 478]	0.15
479 (UUGUAGUGGACGAUCUUGCC; chemistry not given here) [compound 479]	0.19
480 (AGGGAAAGCGCCUCCGAUAG; chemistry not given here) [compound 480]	0.25
481 (GGGAAAGCGCCUCCGAUAGG; chemistry not given here) [compound 481]	0.23
